Assay results as given in PubChem BioAssay AID1259407 (Chemical Carcinogenesis Research Information System (CCRIS), 2018).
Calls of active or inactive are those of the source. No rule for the calls is given here.

Tested on: CCRIS mutagenicity, Ames/micronucleus/aberration tests
Assay: CCRIS mutagenicity studies
[1] = Test System: AMES SALMONELLA TYPHIMURIUM, Strain/Indicator: TA98, Metabolic Activation: NONE, Method: PREINCUBATION
[2] = Test System: AMES SALMONELLA TYPHIMURIUM, Strain/Indicator: TA100, Metabolic Activation: NONE, Method: PREINCUBATION
[3] = Test System: AMES SALMONELLA TYPHIMURIUM, Strain/Indicator: TA1535, Metabolic Activation: NONE, Method: PREINCUBATION
[4] = Test System: AMES SALMONELLA TYPHIMURIUM, Strain/Indicator: TA1537, Metabolic Activation: NONE, Method: PREINCUBATION
[5] = Test System: AMES SALMONELLA TYPHIMURIUM, Strain/Indicator: TA1535, Metabolic Activation: NONE, Method: STANDARD PLATE
[6] = Test System: AMES SALMONELLA TYPHIMURIUM, Strain/Indicator: TA98, Metabolic Activation: NONE, Method: STANDARD PLATE

C=C[Si](OCC)(OCC)OCC
mutagenic call (Test System: AMES SALMONELLA TYPHIMURIUM, Strain/Indicator: TA98, Metabolic Activation: HAMSTER, LIVER, S-9, AROCLOR 1254 (10%), Method: PREINCUBATION): inactive; negative | mutagenic call [1]: inactive; negative | mutagenic call (Test System: AMES SALMONELLA TYPHIMURIUM, Strain/Indicator: TA98, Metabolic Activation: RAT, LIVER, S-9, AROCLOR 1254 (10%), Method: PREINCUBATION): inactive; negative | mutagenic call (Test System: AMES SALMONELLA TYPHIMURIUM, Strain/Indicator: TA100, Metabolic Activation: HAMSTER, LIVER, S-9, AROCLOR 1254 (10%), Method: PREINCUBATION): inactive; negative | mutagenic call [2]: inactive; negative | mutagenic call (Test System: AMES SALMONELLA TYPHIMURIUM, Strain/Indicator: TA100, Metabolic Activation: RAT, LIVER, S-9, AROCLOR 1254 (10%), Method: PREINCUBATION): inactive; negative | mutagenic call (Test System: AMES SALMONELLA TYPHIMURIUM, Strain/Indicator: TA1535, Metabolic Activation: HAMSTER, LIVER, S-9, AROCLOR 1254 (10%), Method: PREINCUBATION): inactive; negative | mutagenic call [3]: inactive; negative | mutagenic call (Test System: AMES SALMONELLA TYPHIMURIUM, Strain/Indicator: TA1535, Metabolic Activation: RAT, LIVER, S-9, AROCLOR 1254 (10%), Method: PREINCUBATION): inactive; negative | mutagenic call (Test System: AMES SALMONELLA TYPHIMURIUM, Strain/Indicator: TA1537, Metabolic Activation: HAMSTER, LIVER, S-9, AROCLOR 1254 (10%), Method: PREINCUBATION): inactive; negative | mutagenic call [4]: inactive; negative | mutagenic call (Test System: AMES SALMONELLA TYPHIMURIUM, Strain/Indicator: TA1537, Metabolic Activation: RAT, LIVER, S-9, AROCLOR 1254 (10%), Method: PREINCUBATION): inactive; negative | mutagenic call (Test System: AMES SALMONELLA TYPHIMURIUM, Strain/Indicator: TA1538, Metabolic Activation: HAMSTER, LIVER, S-9, AROCLOR 1254 (10%), Method: PREINCUBATION): inactive; negative | mutagenic call (Test System: AMES SALMONELLA TYPHIMURIUM, Strain/Indicator: TA1538, Metabolic Activation: NONE, Method: PREINCUBATION): inactive; negative | mutagenic call (Test System: AMES SALMONELLA TYPHIMURIUM, Strain/Indicator: TA1538, Metabolic Activation: RAT, LIVER, S-9, AROCLOR 1254 (10%), Method: PREINCUBATION): inactive; negative | mutagenic call (Test System: Mouse lymphoma, Strain/Indicator: L5178Y (tk+/tk-), Metabolic Activation: None, Method: Suspension/plate): inactive; negative | mutagenic call (Test System: Mouse lymphoma, Strain/Indicator: L5178Y (tk+/tk-), Metabolic Activation: Rat, Liver, S-9, Aroclor 1254, Method: Suspension/plate): inactive; negative

CCN(C=O)N=O
mutagenic call [5]: active; positive | mutagenic call (Test System: E. COLI, Strain/Indicator: WU3610, Metabolic Activation: NONE, Method: SUSPENSION/PLATE): active; positive

Cc1cc2ncccc2c2nc(N=[N+]=[N-])n(C)c12
mutagenic call (Test System: AMES SALMONELLA TYPHIMURIUM, Strain/Indicator: TA98(1,8-DNP6), Metabolic Activation: NONE, Method: STANDARD PLATE): active; positive | mutagenic call [6]: active; positive

CC(O)COC(C)(C)C (stereo unspecified)
mutagenic call (End Point: IN VITRO CHROMOSOMAL ABERRATIONS, Test System: CHO, Metabolic Activation: NONE): inactive; negative | mutagenic call (End Point: IN VITRO CHROMOSOMAL ABERRATIONS, Test System: CHO, Metabolic Activation: S-9): inactive; negative | mutagenic call (End Point: IN VIVO MICRONUCLEUS, Test System: PERIPHERAL BLOOD ERYTHROCYTES, Species: MOUSE, Strain/Sex: B6C3F1/FEMALE, Route: INHALATION): active; positive (weak) | mutagenic call (End Point: IN VIVO MICRONUCLEUS, Test System: PERIPHERAL BLOOD ERYTHROCYTES, Species: MOUSE, Strain/Sex: B6C3F1/MALE, Route: INHALATION): inactive; negative | mutagenic call (Test System: AMES SALMONELLA TYPHIMURIUM, Strain/Indicator: TA97, Metabolic Activation: HAMSTER, LIVER, S-9 (30%), AROCLOR 1254, Method: PREINCUBATION): inactive; negative | mutagenic call (Test System: AMES SALMONELLA TYPHIMURIUM, Strain/Indicator: TA97, Metabolic Activation: NONE, Method: PREINCUBATION): active; positive | mutagenic call (Test System: AMES SALMONELLA TYPHIMURIUM, Strain/Indicator: TA97, Metabolic Activation: RAT, LIVER, S-9 (30%), AROCLOR 1254, Method: PREINCUBATION): inactive; negative | mutagenic call (Test System: AMES SALMONELLA TYPHIMURIUM, Strain/Indicator: TA98, Metabolic Activation: HAMSTER, LIVER, S-9 (30%), AROCLOR 1254, Method: PREINCUBATION): inactive; negative | mutagenic call [1]: inactive; negative | mutagenic call (Test System: AMES SALMONELLA TYPHIMURIUM, Strain/Indicator: TA98, Metabolic Activation: RAT, LIVER, S-9 (30%), AROCLOR 1254, Method: PREINCUBATION): inactive; negative | mutagenic call (Test System: AMES SALMONELLA TYPHIMURIUM, Strain/Indicator: TA100, Metabolic Activation: HAMSTER, LIVER, S-9 (30%), AROCLOR 1254, Method: PREINCUBATION): inactive; negative | mutagenic call [2]: inactive; negative | mutagenic call (Test System: AMES SALMONELLA TYPHIMURIUM, Strain/Indicator: TA100, Metabolic Activation: RAT, LIVER, S-9 (30%), AROCLOR 1254, Method: PREINCUBATION): inactive; negative | mutagenic call (Test System: AMES SALMONELLA TYPHIMURIUM, Strain/Indicator: TA1535, Metabolic Activation: HAMSTER, LIVER, S-9 (30%), AROCLOR 1254, Method: PREINCUBATION): inactive; negative | mutagenic call [3]: inactive; negative | mutagenic call (Test System: AMES SALMONELLA TYPHIMURIUM, Strain/Indicator: TA1535, Metabolic Activation: RAT, LIVER, S-9 (30%), AROCLOR 1254, Method: PREINCUBATION): inactive; negative | mutagenic call [4]: inactive; negative

CNc1ccc(C(=C2C=CC(=[N+](C)C)C=C2)c2ccc(N(C)C)cc2)cc1
mutagenic call (Test System: AMES SALMONELLA TYPHIMURIUM, Strain/Indicator: TA100, Method: PREINCUBATION): active; positive

O=C(O)/C=C/c1ccc(O)c(O)c1
mutagenic call (Test System: AMES SALMONELLA TYPHIMURIUM, Strain/Indicator: TA98, Metabolic Activation: HAMSTER, LIVER, S-9, AROCLOR 1254, Method: STANDARD PLATE): inactive; negative | mutagenic call [6]: inactive; negative | mutagenic call (Test System: AMES SALMONELLA TYPHIMURIUM, Strain/Indicator: TA98, Metabolic Activation: RAT, LIVER, S-9, AROCLOR 1254, Method: STANDARD PLATE): inactive; negative | mutagenic call (Test System: AMES SALMONELLA TYPHIMURIUM, Strain/Indicator: TA100, Metabolic Activation: HAMSTER, LIVER, S-9, AROCLOR 1254, Method: STANDARD PLATE): inactive; negative | mutagenic call (Test System: AMES SALMONELLA TYPHIMURIUM, Strain/Indicator: TA100, Metabolic Activation: NONE, Method: STANDARD PLATE): inactive; negative | mutagenic call (Test System: AMES SALMONELLA TYPHIMURIUM, Strain/Indicator: TA100, Metabolic Activation: RAT, LIVER, S-9, AROCLOR 1254, Method: STANDARD PLATE): inactive; negative | mutagenic call (Test System: AMES SALMONELLA TYPHIMURIUM, Strain/Indicator: TA1535, Metabolic Activation: HAMSTER, LIVER, S-9, AROCLOR 1254, Method: STANDARD PLATE): inactive; negative | mutagenic call [5]: inactive; negative | mutagenic call (Test System: AMES SALMONELLA TYPHIMURIUM, Strain/Indicator: TA1535, Metabolic Activation: RAT, LIVER, S-9, AROCLOR 1254, Method: STANDARD PLATE): inactive; negative | mutagenic call (Test System: AMES SALMONELLA TYPHIMURIUM, Strain/Indicator: TA1537, Metabolic Activation: HAMSTER, LIVER, S-9, AROCLOR 1254, Method: STANDARD PLATE): inactive; negative | mutagenic call (Test System: AMES SALMONELLA TYPHIMURIUM, Strain/Indicator: TA1537, Metabolic Activation: NONE, Method: STANDARD PLATE): inactive; negative | mutagenic call (Test System: AMES SALMONELLA TYPHIMURIUM, Strain/Indicator: TA1537, Metabolic Activation: RAT, LIVER, S-9, AROCLOR 1254, Method: STANDARD PLATE): inactive; negative | mutagenic call (Test System: AMES SALMONELLA TYPHIMURIUM, Strain/Indicator: TA1538, Metabolic Activation: HAMSTER, LIVER, S-9, AROCLOR 1254, Method: STANDARD PLATE): inactive; negative | mutagenic call (Test System: AMES SALMONELLA TYPHIMURIUM, Strain/Indicator: TA1538, Metabolic Activation: NONE, Method: STANDARD PLATE): inactive; negative | mutagenic call (Test System: AMES SALMONELLA TYPHIMURIUM, Strain/Indicator: TA1538, Metabolic Activation: RAT, LIVER, S-9, AROCLOR 1254, Method: STANDARD PLATE): inactive; negative | mutagenic call (Test System: MOUSE LYMPHOMA, Strain/Indicator: L5178Y (TK+/TK-), Metabolic Activation: NONE, Method: SUSPENSION/PLATE): active; positive. reevaluation of results: positive | mutagenic call (Test System: MOUSE LYMPHOMA, Strain/Indicator: L5178Y (TK+/TK-), Metabolic Activation: RAT, LIVER, S-9, AROCLOR 1254, Method: SUSPENSION/PLATE): inactive; negative; reevaluation of results: negative
